Measurements taken from the OligoGym collection.
Values joined by “and” are separate entries in the source; they are usually repeats but may differ in a detail not shown here. Equal entries are not always repeated. After the bases stand the sugars from the 5' end (letter, count) and the backbone: PS all phosphorothioate, else s phosphorothioate and o phosphodiester by linkage. Methylation of C is not given here. e = 2'-O-(2-methoxyethyl) (MOE); l = locked nucleic acid (LNA); k = constrained ethyl (cEt); d = 2'-deoxy (DNA)

How the values were obtained:
ANGPTL2 = settings: ASO
MYH7 = settings: ASO, CC-2580, 5 µM
KRAS = settings: ASO

Sequence	target mRNA inhibition (ANGPTL2; 5 µM) [%]	target mRNA inhibition (ANGPTL2; 25 µM) [%]	also measured
AACCATTTTGAGATTCCCC (sugars l1 d16 l2, PS)	28.5	17.6	–
AACCCCAGAGGATATGT (sugars l1 d13 l3, PS)	49.3	58.9	–
AAGTTGATAGTTTATCTCC (sugars l3 d14 l2, PS)	76.3	83.8	–
AAGTTGATAGTTTATCTCCT (sugars l2 d16 l2, PS)	60.9	72	–
AATTACTCCACACTTTCA (sugars l3 d12 l3, PS)	55.7	61.6	–
ACAACTCACATTCATAG (sugars l4 d9 l4, PS)	49	54.7	–
ACAGAGACTAGGCATTT (sugars l3 d10 l4, PS)	74.1	83.9	–
ACATAATGTTTCATGCT (sugars l4 d11 l2, PS)	46	45.8	–
ACTGGTGAGGAGTTGTT (sugars l2 d13 l2, PS)	26	25.8	–
AGATGAATATAGTTCTC (sugars l4 d10 l3, PS)	55.3	65.9	–
AGCTCAGTGGTGAGATGG (sugars l1 d15 l2, PS)	54.1	54.8	–
AGTGAGAGGAAGTCAGGG (sugars l1 d15 l2, PS)	39.6	46.3	–
AGTGTTTAAGAAGAAATG (sugars l4 d10 l4, PS)	41.7	54.8	–
AGTTACTCTTAGCCAAA (sugars l3 d10 l4, PS)	82.6	84.8	–
ATAACGCCCACTGAGA (sugars l1 d11 l4, PS)	24.4	39.7	–
ATAGCAGGGAGTGACC (sugars l2 d12 l2, PS)	8.4	26.5	–
ATCTGGTTGATGATGCGG (sugars l2 d14 l2, PS)	75.2	82.3	–
ATCTTATTTTGTTTAACA (sugars l4 d10 l4, PS)	60.2	51.7	–
ATGAAGTCAGTCAGAGCCT (sugars l1 d16 l2, PS)	27.6	22.6	–
ATGATGCGGTTGTAGGT (sugars l2 d13 l2, PS)	57.5	–	–
ATTTACTGTCTGCCCAG (sugars l2 d12 l3, PS)	54.6	59.5	–

Sequence	target mRNA inhibition (ANGPTL2; 5 µM) [%]	target mRNA inhibition (ANGPTL2; 25 µM) [%]	also measured
ATTTTGAGATTCCCCCAA (sugars l1 d14 l3, PS)	3.44	20.9	–
CAGAACAATGGGGAGGA (sugars l3 d12 l2, PS)	58.5	51.1	–
CAGCTCATTGTTGAGCAG (sugars l2 d14 l2, PS)	-19	7.91	–
CAGCTTGGCGATGATCT (sugars l2 d6 l1 d5 l3, PS)	–	–	target mRNA inhibition (MYH7): 7% and -9%
CAGCTTGGCGATGATCT (sugars l2 d8 l3 d2 l2, PS)	–	–	target mRNA inhibition (MYH7): 39% and 30%
CAGCTTGGCGATGATCT (sugars l2 d10 l1 d2 l2, PS)	–	–	target mRNA inhibition (MYH7): 64% and 43%
CAGCTTGGCGATGATCT (sugars l4 d9 l4, PS)	–	–	target mRNA inhibition (MYH7): 27% and 4%
CAGCTTGGCGATGATCT (sugars lddlddddddddlddll, PS)	–	–	target mRNA inhibition (MYH7): 35% and 18%
CAGCTTGGCGATGATCT (sugars lddldddddddldddll, PS)	–	–	target mRNA inhibition (MYH7): -4% and -11%
CAGCTTGGCGATGATCT (sugars lddldddddddldllll, PS)	–	–	target mRNA inhibition (MYH7): 7% and -16%
CAGCTTGGCGATGATCT (sugars lddlddddddldlldll, PS)	–	–	target mRNA inhibition (MYH7): 21% and 13%
CAGCTTGGCGATGATCT (sugars lddlddddddlllddll, PS)	–	–	target mRNA inhibition (MYH7): -30%
CAGGCACACTAATGAGA (sugars l2 d12 l3, PS)	9.64	9.52	–
CAGGCCAACACTAACTCG (sugars l1 d14 l3, PS)	73.4	84.2	–
CAGGCGTCTCTGGATGA (sugars l1 d14 l2, PS)	17.4	10.6	–
CATTTTGAGATTCCCCC (sugars l1 d14 l2, PS)	27.1	14	–
CCAAGGGCACGTTTTA (sugars l2 d12 l2, PS)	-4	13.2	–
CCAGTTCCTGAAGAAGTT (sugars l2 d14 l2, PS)	16.3	16.7	–
CCTTGCAAAATGGTGGTT (sugars l2 d14 l2, PS)	49.6	57.4	–
CTCCGGTAATGGCCCC (sugars l1 d12 l3, PS)	28.6	25.4	–
CTTAATGGGCAGTAATA (sugars l4 d9 l4, PS)	32.6	42.3	–

Sequence	target mRNA inhibition (ANGPTL2; 5 µM) [%]	target mRNA inhibition (ANGPTL2; 25 µM) [%]	also measured
GAACCTCAATATCCTGC (sugars l1 d13 l3, PS)	62.6	72.6	–
GAACTCAGCCCAGTAGA (sugars l1 d14 l2, PS)	1.82	15.7	–
GACTAACTGTTGAAATTG (sugars l3 d11 l4, PS)	26.9	30.8	–
GAGTTCATGTTGCGGC (sugars l1 d13 l2, PS)	21.4	24.9	–
GATGATGCGGTTGTAG (sugars l4 d10 l2, PS)	70	75.2	–
GCAGCTCATTGTTGAGC (sugars l1 d14 l2, PS)	8.7	–	–
GCAGTTATCACACCACA (sugars l1 d13 l3, PS)	38.9	44	–
GCTCATTGTTGAGCAGC (sugars l1 d14 l2, PS)	-2.2	3.15	–
GTATTGTGAGGAGTTTC (sugars l4 d11 l2, PS)	80	84.3	–
GTGGGCAGGAGAAGGGAC (sugars l1 d15 l2, PS)	17.8	-18.2	–
GTTGATGATGCGGTTGTA (sugars l1 d15 l2, PS)	44.2	53.9	–
TATTAGCATCACTACTTT (sugars l4 d11 l3, PS)	48	52.1	–
TCCAAGGCACTCTATGAT (sugars l2 d14 l2, PS)	13.8	27.7	–
TGACCCCTGATTATTCA (sugars l1 d13 l3, PS)	7.55	4.06	–
TGATGATGCGGTTGTAG (sugars l3 d12 l2, PS)	64.2	70.3	–
TGGTGTAACATAGGTT (sugars k3 d10 k3, PS)	–	–	target mRNA inhibition (KRAS; A431, 0.185 µM): 0%; target mRNA inhibition (KRAS; A431, 0.556 µM): 35%; target mRNA inhibition (KRAS; A431, 1.667 µM): 61%; target mRNA inhibition (KRAS; A431, 2 µM): 58%; target mRNA inhibition (KRAS; A431, 5 µM): 78%
TGGTGTAACATAGGTT (sugars kkddddddddkekekk, PS)	–	–	target mRNA inhibition (KRAS; A431, 0.185 µM): 11%; target mRNA inhibition (KRAS; A431, 0.556 µM): 33%; target mRNA inhibition (KRAS; A431, 1.667 µM): 58%; target mRNA inhibition (KRAS; A431, 2 µM): 55%; target mRNA inhibition (KRAS; A431, 5 µM): 68%
TGGTTGATGATGCGGTTGTA (sugars l1 d17 l2, PS)	48	53	–
TGTAAATATAGCCCCA (sugars k3 d10 k3, PS)	–	–	target mRNA inhibition (KRAS; A431, 2 µM): 34%
TGTACTAGTATGCCTT (sugars k3 d10 k3, PS)	–	–	target mRNA inhibition (KRAS; A431, 0.185 µM): 18% and 9%; target mRNA inhibition (KRAS; A431, 1.667 µM): 61% and 43%; target mRNA inhibition (KRAS; A431, 2 µM): 66%; target mRNA inhibition (KRAS; A431, 5 µM): 74% and 64%
TGTAGGGCATTTCTGA (sugars k3 d10 k3, PS)	–	–	target mRNA inhibition (KRAS; A431, 2 µM): 0%

Sequence	target mRNA inhibition (ANGPTL2; 5 µM) [%]	target mRNA inhibition (ANGPTL2; 25 µM) [%]	also measured
TGTTGAGCTATCCAAA (sugars k3 d10 k3, PS)	–	–	target mRNA inhibition (KRAS; A431, 2 µM): 37%
TGTTTATGCAATGTTA (sugars kkdddddddddkekek, PS)	–	–	target mRNA inhibition (KRAS; A431, 0.185 µM): 50%; target mRNA inhibition (KRAS; A431, 0.556 µM): 46%; target mRNA inhibition (KRAS; A431, 1.667 µM): 69%; target mRNA inhibition (KRAS; A431, 2 µM): 56%; target mRNA inhibition (KRAS; A431, 5 µM): 82%
TTAATGTCACAAGCAG (sugars k3 d10 k3, PS)	–	–	target mRNA inhibition (KRAS; A431, 2 µM): 52%
TTACTTTTTGACAAAT (sugars k3 d10 k3, PS)	–	–	target mRNA inhibition (KRAS; A431, 2 µM): 0%
TTAGGAGTCTTTATAG (sugars k3 d10 k3, PS)	–	–	target mRNA inhibition (KRAS; A431, 2 µM): 30%
TTAGTGATTAGGTCAA (sugars kkddddddddddkeke, PS)	–	–	target mRNA inhibition (KRAS; A431, 2 µM): 22%
TTATAAACTCCTTGCTCTA (sugars l1 d14 l4, PS)	33.2	42.4	–
TTCTGTCTATTCATAC (sugars k3 d10 k3, PS)	–	–	target mRNA inhibition (KRAS; A431, 2 µM): 10%
TTGACAGGGATTAGGCA (sugars l1 d13 l3, PS)	11.6	23.9	–
TTGATTTGTCAGCAGG (sugars k3 d9 k3 e1, PS)	–	–	target mRNA inhibition (KRAS; A431, 2 µM): 55% and 30%
TTGATTTGTCAGCAGG (sugars k3 d10 k3, PS)	–	–	target mRNA inhibition (KRAS; A431, 0.185 µM): 41%; target mRNA inhibition (KRAS; A431, 0.556 µM): 60%; target mRNA inhibition (KRAS; A431, 1.667 µM): 77%; target mRNA inhibition (KRAS; A431, 2 µM): 65% and 66% and 74%; target mRNA inhibition (KRAS; A431, 5 µM): 87%
TTGATTTGTCAGCAGG (sugars kdddddddddkekeke, PS)	–	–	target mRNA inhibition (KRAS; A431, 2 µM): 22%
TTGATTTGTCAGCAGG (sugars kkkdddddddddkeke, PS)	–	–	target mRNA inhibition (KRAS; A431, 2 µM): 40%
TTGATTTGTCAGCAGG (sugars kkkddddddddkdkdk, PS)	–	–	target mRNA inhibition (KRAS; A431, 2 µM): 19%
TTGATTTGTCAGCAGG (sugars kkkddddddddkekek, PS)	–	–	target mRNA inhibition (KRAS; A431, 2 µM): 37% and 12%
TTGCTATAATAATCCC (sugars k3 d10 k3, PS)	–	–	target mRNA inhibition (KRAS; A431, 2 µM): 39%
TTGTTTAAAAAAAAAA (sugars k3 d10 k3, PS)	–	–	target mRNA inhibition (KRAS; A431, 2 µM): 0%
TTTCTGATGTGACTCA (sugars k3 d10 k3, PS)	–	–	target mRNA inhibition (KRAS; A431, 0.185 µM): 0%; target mRNA inhibition (KRAS; A431, 0.556 µM): 23%; target mRNA inhibition (KRAS; A431, 1.667 µM): 43%; target mRNA inhibition (KRAS; A431, 2 µM): 57%; target mRNA inhibition (KRAS; A431, 5 µM): 60%
TTTTGAGATTCCCCCAAA (sugars l1 d13 l4, PS)	24.8	24.7	–
